The source of these data is US7396910B2, “Transient receptor potential channel TRPV3 and its use” (IRM LLC, priority 2001, dated 2008).

In assay [1] the test system is Non-transfected CHO cells. Put plainly: Fura-2 calcium imaging of non-transfected CHO cells (control cells). The settings on record: tested up to 1 mM. The assay is classed as cell-based, Chinese Hamster.
Assay [2] addresses T1, mouse TRPM8 (Mus musculus, UniProt Q8R4D5).
T1 construct: expressed in transfected cells
Put plainly: Fura-2 calcium imaging of TRPM8-expressing CHO cells. The assay is classed as cell-based. The source says:
Given the similarity of TRPM8 protein to TRPV family members and its unique expression pattern, the effects of heat, capsaicin, cold and menthol in mediating calcium influx are examined using transfected CHO-K1/FRT cells expressing TRPM8 protein and a fluorescent calcium imaging method as described in detail below.
To generate mouse TRPM8-expressing CHO cell lines, mouse TRPM8 cDNA are subcloned in pcDNA5 (Invitrogen), transfected into CHO-K1/FRT cells using Fugene 6 (Roche). The transfected cells are selected by growth in MEM medium containing […] hygromycin (Gibco BRL). Populations are frozen at early passage numbers and these stocks are used for further studies. Stable clones that express the mRNAs are identified by Northern blot analysis as well as Southern blotting to confirm integration site (not shown).
Calcium imaging experiments are performed essentially as previously described (see Savidge et al., Neuroscience, 102:177-184 (2001)). Briefly, cells are plated on glass coverslips and loaded with Fura-2 acetoxymethyl ester ([…]) and incubated for 30-60 minutes at room temperature in […] of pluronic acid (Molecular Probes, Eugene, Oreg.) in a HEPES-buffered saline (2 mM Ca 2+). Coverslips are placed in a laminar flow perfusion chamber (Warner Instrument Corp.) and constantly perfused with HEPES-buffered saline (2 mM Ca^2+) via a local perfusion pipette through which buffer and chilled solutions are also applied. Chilled stimulations consist of a linear decrease (˜1-1.5° C. sec^−1) in perfusate temperature from 33° C. to 10° C. Perfusate temperature is controlled by a regulated Peltier device and is monitored in the cell chamber by a miniature thermocouple. Alternatively, cells are plated on 24-well tissue culture plates, loaded with Fura-2 and application of solutions is performed with a 3 cc syringe over a period of 10 seconds. Images of Fura-2 loaded cells with the excitation wavelength alternating between […] are captured with a cooled CCD camera. Following subtraction of background fluorescence, the ratio of fluorescence intensity at the two wavelengths is calculated. Ratio levels in groups of 20-40 individual cells are analyzed using MetaFluor (Universal Imaging Corporation). All graphs are averaged responses from groups of 20-30 individual cells from representative single experiments. […] Hanks balanced salt solution (HBSS), phosphate buffered saline (PBS) and all cell culture reagents are obtained from Gibco BRL. Ruthenium red, capsaicin and menthol are obtained from Sigma.

Assay [3] deals with T1, mouse TRPM8. Kind of assay: Whole-cell voltage clamp of TRPM8-expressing CHO cells. It counts as cell-based. Here is the method: To investigate the membrane responses to cold and menthol, voltage clamp experiments are carried out on TRPM8 expressing cells which are prepared as described above.
Cells are plated onto poly-D-lysine coated cover-slips for recording purposes and recordings undertaken 18-24 hours later. Experiments are carried out at room temperature using whole-cell voltage clamp technique, with an Axopatch 2B amplifier, filtered at 5 kHz and pClamp suite of software (Axon Instruments). Series resistant compensation is 80% for all experiments, using 2-5 MΩ fire-polished pipettes. Recording solutions are as follows; pipette solution for all experiments is (mM) CsCl, 140; CaCl2, 1; EGTA, 10; HEPES, 10; MgATP, 2; titrated to pH 7.4 with CsOH. For menthol and cold activated currents the bath solution is (mM): NaCl, 140; KCl, 5; Glucose; 10, HEPES, 10; CaCl2, 2; MgCl2, 1; titrated to pH 7.4 with NaOH. Current-voltage relationships are used to evaluate reversal potentials with voltage ramps from −100 to +60 mV (2 second duration). For the permeability studies for the monovalent ions the NaCl in a simplified bath solution (mM): NaCl, 140; Glucose; 10, HEPES, 10; CaCl2, 2; MgCl2, 1, is substituted by either equimolar CsCl or KCl (titrated with CsOH or KOH). For calcium permeability estimates, the bath solutions contains (mM) NaCl, 100; Glucose, 10 mM; Hepes, 10 mM (titrated with NaOH) plus 1 or 30 mM CaCl2. Osmolarity of solutions are adjusted by addition of sucrose. Permeability ratios for the monovalent cations to Na (PX/PNa) are calculated as follows: PX/PNa=Eshift={RT/F}log(PX/PNa[X]O/[Na]O)
where B′=P′Ca/PNa and P′Ca=PCa/(1+e^EF/RT) and [Ca]O(1) and [Ca]O(2) refer to the two different calcium concentrations. Local perfusion of menthol is via a TC^2bip temperature controller. A Marlow temperature controller is used for the cooling ramps.

The subject of assay [4] is Non-transfected CHO cells. Put plainly: Whole-cell voltage clamp of non-transfected CHO cells (control cells). It counts as cell-based, Chinese Hamster. The following applies: temperatures >23° C. As to the method: To investigate the membrane responses to cold and menthol, voltage clamp experiments are carried out on TRPM8 expressing cells which are prepared as described above. Cells are plated onto poly-D-lysine coated cover-slips for recording purposes and recordings undertaken 18-24 hours later. […] Series resistant compensation is 80% for all experiments, using 2-5 MΩ fire-polished pipettes. Recording solutions are as follows; pipette solution for all experiments is (mM) CsCl, 140; […] EGTA, 10; HEPES, 10; […] For menthol and cold activated currents the bath solution is (mM): NaCl, 140; KCl, 5; Glucose; 10, HEPES, 10; […] Current-voltage relationships are used to evaluate reversal potentials with voltage ramps from -100 to +60 mV (2 second duration). For the permeability studies for the monovalent ions the NaCl in a simplified bath solution (mM): NaCl, 140; Glucose; 10, HEPES, 10; […] MgCl2, 1, is substituted by either equimolar CsCl or KCl (titrated with CsOH or KOH). For calcium permeability estimates, the bath solutions contains (mM) NaCl, 100; Glucose, 10 mM; Hepes, 10 mM (titrated with NaOH) plus 1 or 30 mM CaCl2. Osmolarity of solutions are adjusted by addition of sucrose. Permeability ratios for the monovalent cations to Na (PX/PNa) are calculated as follows: […]={[…])

Assay [5] deals with T2, Mouse TRPV3 (Mus musculus, UniProt Q8K424, A9V).
T2 construct: expressed in transfected cells
T2 sequence (Q8K424 1-791 A9V): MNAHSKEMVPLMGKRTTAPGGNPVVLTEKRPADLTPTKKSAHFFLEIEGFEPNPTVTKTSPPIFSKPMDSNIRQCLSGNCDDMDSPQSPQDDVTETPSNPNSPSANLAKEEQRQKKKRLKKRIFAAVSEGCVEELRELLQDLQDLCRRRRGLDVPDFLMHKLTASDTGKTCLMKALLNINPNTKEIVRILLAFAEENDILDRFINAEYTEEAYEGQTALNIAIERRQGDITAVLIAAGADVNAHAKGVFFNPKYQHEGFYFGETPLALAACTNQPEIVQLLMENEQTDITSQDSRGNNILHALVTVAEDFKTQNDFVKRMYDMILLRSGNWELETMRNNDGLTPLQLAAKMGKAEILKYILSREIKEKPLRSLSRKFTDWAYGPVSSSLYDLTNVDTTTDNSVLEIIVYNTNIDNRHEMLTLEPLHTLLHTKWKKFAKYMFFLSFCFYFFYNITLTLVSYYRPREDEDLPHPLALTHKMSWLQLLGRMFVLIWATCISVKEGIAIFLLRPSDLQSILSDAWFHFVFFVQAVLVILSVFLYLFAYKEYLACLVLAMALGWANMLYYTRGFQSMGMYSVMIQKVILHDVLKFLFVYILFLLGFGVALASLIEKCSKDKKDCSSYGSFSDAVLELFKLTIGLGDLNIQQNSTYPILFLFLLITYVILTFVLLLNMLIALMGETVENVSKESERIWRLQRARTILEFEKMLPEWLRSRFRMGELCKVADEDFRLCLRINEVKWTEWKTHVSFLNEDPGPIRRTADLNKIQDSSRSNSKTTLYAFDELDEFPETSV
Put plainly: Whole-cell voltage clamp of TRPV3-expressing CHO cells (heat-evoked currents). It counts as cell-based. As to the method:
Given the high degree of homology of TRPV3 to TRPV family members, TRPV3 is tested to determine whether it responds to stimuli known to activate other closely-related family members. Accordingly, the effects of heat upon TRPV3 activity in mediating conductance are examined using whole-cell patch-clamp analysis of transfected CHO cell lines expressing TRPV3.
Mouse TRPV3 and rat TRPV1 cDNA are subcloned into pcDNA5 (Invitrogen) and transfected into CHO-K1/FRT cells using Fugene 6 (Roche). The transfected cells are selected by growth in MEM medium containing 200 μg/mL hygromycin (Gibco BRL). Populations are frozen at early passages and these stocks are used for further studies. Stable clones that express the mRNAs are identified by Northern blot analysis as well as Southern blotting to confirm integration site. Long-term cultures are subsequently maintained at 33° C.
TRPV3 expressing CHO cells are assayed electrophysiologically using whole cell voltage clamped techniques. Currents are recorded via pCLAMP8 suite of software via an Axopatch 200A and filtered at 5 kHz. Series-resistance compensation for all experiments is 80% using 2-5 MΩ resistance, fire-polished pipettes. Unless stated, the holding potential for most experiments is −60 mV, apart from the current-voltage relationship studies (2 second ramp from −100 to +80 mV). Cells are normally bathed in a medium containing (mM): NaCl, 140; KCl, 5; Glucose; 10, HEPES, 10; CaCl2, 2; MgCl2 1; titrated to pH 7.4 with NaOH, apart from the monovalent permeability studies, when NaCl is replaced by equimolar KCl or CsCl with the omission of KCl, 5 mM. For the divalent permeability studies, the solutions either contain 1 mM Ca^2+ or Mg^2+ and (mM) NaCl, 100; Glucose, 10; Hepes, 10; sucrose, 80 or 30 mM test ion, in the above solution minus sucrose. The experiments in calcium free media have no added CaCl2 with the addition of 100 μM EGTA. Pipette solution is always (mM) CsCl, 140; CaCl2, 1; EGTA, 10; HEPES, 10; MgATP, 2; titrated to pH7.4 with CsOH. For the permeability, ratios for the monovalent cations relative to Na (PX/PNa) are calculated as follows: PX/PNa=Eshift={RT/F}log(PX/PNa[X]O/[Na]O)

Entries after “also recorded” stand apart in the source; their conditions may differ.

T1 sequence (Q8R4D5 whole entry): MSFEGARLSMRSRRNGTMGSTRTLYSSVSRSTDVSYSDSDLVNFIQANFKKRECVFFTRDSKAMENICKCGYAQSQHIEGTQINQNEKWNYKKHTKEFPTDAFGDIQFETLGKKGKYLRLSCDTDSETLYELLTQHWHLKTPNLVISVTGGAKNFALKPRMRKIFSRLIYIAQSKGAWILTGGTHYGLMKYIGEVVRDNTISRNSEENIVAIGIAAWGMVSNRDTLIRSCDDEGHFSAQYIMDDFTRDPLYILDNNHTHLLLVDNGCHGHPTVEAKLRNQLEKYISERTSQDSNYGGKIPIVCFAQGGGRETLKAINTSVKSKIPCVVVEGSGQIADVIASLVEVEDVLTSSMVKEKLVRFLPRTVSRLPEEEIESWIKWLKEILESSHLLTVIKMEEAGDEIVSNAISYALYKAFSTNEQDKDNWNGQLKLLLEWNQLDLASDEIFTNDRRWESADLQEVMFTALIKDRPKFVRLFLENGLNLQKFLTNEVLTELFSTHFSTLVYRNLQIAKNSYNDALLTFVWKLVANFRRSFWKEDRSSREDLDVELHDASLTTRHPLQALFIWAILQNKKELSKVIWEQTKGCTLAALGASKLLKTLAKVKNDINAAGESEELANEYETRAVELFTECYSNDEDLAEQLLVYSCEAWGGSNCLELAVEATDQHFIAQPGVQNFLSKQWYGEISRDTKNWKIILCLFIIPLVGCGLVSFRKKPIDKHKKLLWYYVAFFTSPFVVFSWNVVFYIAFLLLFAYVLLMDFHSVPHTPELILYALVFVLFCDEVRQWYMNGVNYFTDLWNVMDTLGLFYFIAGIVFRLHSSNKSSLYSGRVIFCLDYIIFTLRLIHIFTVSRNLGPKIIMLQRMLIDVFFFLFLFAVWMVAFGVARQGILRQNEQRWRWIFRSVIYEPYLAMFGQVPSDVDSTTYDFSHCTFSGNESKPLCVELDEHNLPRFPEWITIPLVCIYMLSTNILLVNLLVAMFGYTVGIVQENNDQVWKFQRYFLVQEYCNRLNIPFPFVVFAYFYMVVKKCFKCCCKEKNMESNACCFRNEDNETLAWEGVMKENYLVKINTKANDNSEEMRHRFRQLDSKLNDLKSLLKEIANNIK

As for `CC1CCC(C(C)C)C(O)C1` (stereo not shown) [menthol], the “calcium response of non-transfected CHO cells” value in assay [1] is “completely insensitive; also recorded: no increase in [Ca^2+]i”. Also, the “calcium response of TRPM8 expressing cells upon lowering the temperature to 30° C.” value in assay [2] (30° C., 10 μM (FIG. 7E)) is recorded as “intracellular calcium levels increases; also recorded: marked increase in intracellular Ca^2+”. Besides, the “calcium response of TRPM8 expressing cells at 33° C.” value in assay [2] (33° C., 10 μM (FIG. 7E)) is “does not induce a calcium response; also recorded: does not elicit an influx of Ca^2+”. Also, the “intracellular calcium (Fura-2 fluorescence) response of TRPM8 cells” value in assay [2] (cells incubated at 25° C., 10 and 100 μM) is “increases significantly; also recorded: responds to menthol”. Further, the “desensitization of TRPM8-expressing cells on repeated applications” value in assay [2] (repeated applications (FIG. 7E)) is on record as “do not appear to desensitize”. Besides, in assay [3] (1 mM, Vh=−60 mV, 25° C.), the “inward currents evoked in TRPM8-expressing CHO cells (FIG. 10A)” value is “Inward currents evoked”. The “concentration-response relationship of evoked currents at 22° C. versus 35° C.” value in assay [3] (+60 mV, 0.1, 0.5, 1 and 10 mM) was “shifted to the left at the lower temperature”. Also, the “Erev of the menthol activated current” value in assay [3] (CsCl pipette, NaCl-based bath solution, n=12) is on record as −9.28±0.75 mV. For the same compound, the “currents evoked in TRPM8 expressing cells” value in assay [3] (temperatures above the threshold for cold activation (>23° C.)) was “evokes rapidly activating currents”. Besides, in assay [4], the “currents evoked in non-transfected CHO cells” value was “not in non-transfected CHO cells”.

Consider `COc1cc(CNC(=O)CCCC/C=C/C(C)C)ccc1O` [Capsaicin, capsaicin], for which, in assay [2] (10 μM), the “intracellular calcium response evoked in TRPM8 expressing cells” value is “does not evoke a response”. Besides, the “current response evoked in TRPV3-expressing cells” value in assay [5] (1 μM, whole cell voltage clamp) is listed as “does not evoke a response”.

Turning to `Oc1cc2c(cc1O)CN(C(=S)NCCc1ccc(Cl)cc1)CCC2` [capsazepine], the “amplitude of test heat-evoked current relative to the preceding response” value in assay [5] (10 μM applied for 2 minutes prior to the test heat challenge, after 4-5 sensitizing heat steps, no-antagonist control 1.57±0.25) is on record as 2.31±0.36 times the amplitude of the preceding response.

Turning to `N.N.N.N.N.N.N.N.N.N.N.N.N.N.[Cl-].[Cl-].[Cl-].[Cl-].[Cl-].[Cl-].[O-2].[O-2].[Ru+3].[Ru+3].[Ru+4]` [ruthenium red], the “suppression of the temperature (cold) calcium response of TRPM8 expressing cells” value in assay [2] (5 μM) is recorded as “does not suppress the temperature response”. The “relative amplitude of the heat response (test heat-evoked current relative to the preceding response)” value in assay [5] (1 μM applied for 2 minutes prior to the test heat challenge, after 4-5 sensitizing heat steps, no-antagonist control 1.57±0.25) came out at 0.34±0.03. The “effect on sensitization and heat response of TRPV3 (FIG. 4D)” value in assay [5] (1 μM, repeated heat steps) was “attenuates the sensitization and inhibits the heat response”.
